Measurements reported in the supplement of paper PMC11208160.

test: recombinant barcode read abundance after kanamycin selection (control-corrected) (log10(CPM+1)); higher = more efficient recombination; sequences stand for … in AGTGCAGAGAAAATCGGCCAGTTTTCTCTGCCTGCAGTCCGCATGCCGT…AGATTTATGCAGCGGACTGCCTTTCTCCCAAAGTGATAAACCGGACAGTATCATGGACCGGTTTTCCCGGTAATCCGTATTTGCAAGGTTGGTTTCACT; site = the 11-nt target
How it was run: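 Recombination efficiency was calculated from barcode counts at recombinant junctions, normalized to counts per million, averaged and corrected by the control. Each value is given as log10(CPM+1). The constructs were Gibson-cloned oligos (promoter, target, barcode, J23119-driven first 104 bridge RNA bases) in a vector with the remaining 73 bp and a T7-inducible recombinase, co-electroporated into E. coli with a donor plasmid and plated in duplicate on chloramphenicol/ampicillin LB agar (control) or chloramphenicol/ampicillin/kanamycin with 0.1 mM IPTG.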
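Further: IS621 recombinase and bridge RNA in Escherichia coli cells.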

Row | Sequence | recombinant barcode read abundance (log10)
1 | TGTTCCTCTTGGGTTCTAACCTGTTGCCT (site TGTACCTCTAG) | 0.143
2 | TGTTCCTCTTGGGTTCTAACCTGTTGCCT (site TGTCCCTCTAG) | 0.142
3 | TGTTCCTCTTGGGTTCTAACCTGTTGCCT (site TGTGCCTCTAG) | 0.114
4 | TGTTCCTCTTGGGTTCTAACCTGTTGCCT (site TGTTCCTCTAG) | 0.106
5 | TGTTCTACTTGGGTTCTAACCTGTTGCCG (site TGCTCTACTCA) | 0.052
6 | TGTTCTACTTGGGTTCTAACCTGTTGCCG (site TGTTCTACTCG) | 0.0964
7 | TGTTCTCCTTGGGTTCTAACCTGTTGCCT (site AGTTCTCCTAG) | 0.0134
8 | TGTTCTCCTTGGGTTCTAACCTGTTGCCT (site CGTTCTCCTAG) | 0.0608
9 | TGTTCTCCTTGGGTTCTAACCTGTTGCCT (site GGTTCTCCTAG) | 0.064
10 | TGTTCTCCTTGGGTTCTAACCTGTTGCCT (site TGTTCTCCTAG) | 0
11 | TGTTGACCTTGGGTTCTAACCTGTTGCAT (site TGTAGATCTAT) | 0.0346
12 | TGTTGACCTTGGGTTCTAACCTGTTGCAT (site TGTTGACCTAT) | 0.329
13 | TTACATGCTTGGGTTCTAACCTGTTGCCT (site AAGATCACTCC) | 0.281
14 | TTACATGCTTGGGTTCTAACCTGTTGCCT (site TTACATGCTAG) | 1.27
15 | TTAGAGGCTTGGGTTCTAACCTGTTGCCT (site TTAGAGACTAG) | 0.363
16 | TTAGAGGCTTGGGTTCTAACCTGTTGCCT (site TTAGAGCCTAG) | 0
17 | TTAGAGGCTTGGGTTCTAACCTGTTGCCT (site TTAGAGGCTAG) | 1.13
18 | TTAGAGGCTTGGGTTCTAACCTGTTGCCT (site TTAGAGTCTAG) | 0.0154
19 | TTAGCATCTTGGGTTCTAACCTGTTGCCT (site TTAGCATCTAG) | 0.589
20 | TTAGCATCTTGGGTTCTAACCTGTTGCCT (site TTAGCCTCTAG) | 0.412
21 | TTAGCATCTTGGGTTCTAACCTGTTGCCT (site TTAGCGTCTAG) | 0.161
22 | TTAGCATCTTGGGTTCTAACCTGTTGCCT (site TTAGCTTCTAG) | 0.0531

Row | Sequence | recombinant barcode read abundance (log10)
23 | TTAGGGTCTTGGGTTCTAACCTGTTGCCT (site TTAGGGACTAG) | 0.252
24 | TTAGGGTCTTGGGTTCTAACCTGTTGCCT (site TTAGGGCCTAG) | 1.17
25 | TTAGGGTCTTGGGTTCTAACCTGTTGCCT (site TTAGGGGCTAG) | 0.0984
26 | TTAGGGTCTTGGGTTCTAACCTGTTGCCT (site TTAGGGTCTAG) | 2.15
27 | TTAGTCGCTTGGGTTCTAACCTGTTGCCT (site TTAGTAGCTAG) | 0.191
28 | TTAGTCGCTTGGGTTCTAACCTGTTGCCT (site TTAGTCGCTAG) | 2.28
29 | TTAGTCGCTTGGGTTCTAACCTGTTGCCT (site TTAGTGGCTAG) | 0.134
30 | TTAGTCGCTTGGGTTCTAACCTGTTGCCT (site TTAGTTGCTAG) | 0.0472
31 | TTAGTTGCTTGGGTTCTAACCTGTTGCCT (site TTAGTAGCTAG) | 0.225
32 | TTAGTTGCTTGGGTTCTAACCTGTTGCCT (site TTAGTCGCTAG) | 0.0596
33 | TTAGTTGCTTGGGTTCTAACCTGTTGCCT (site TTAGTGGCTAG) | 0.0286
34 | TTAGTTGCTTGGGTTCTAACCTGTTGCCT (site TTAGTTGCTAG) | 1.4
35 | TTCAACTCTTGGGTTCTAACCTGTTGCGT (site TTCAACTCTAC) | 1.56
36 | TTCAACTCTTGGGTTCTAACCTGTTGCGT (site TTCAAGTCTAC) | 0.0543
37 | TTCAAGCCTTGGGTTCTAACCTGTTGCGT (site TTCAAGCCTAC) | 1.17
38 | TTCAAGCCTTGGGTTCTAACCTGTTGCGT (site TTCAAGCCTCC) | 0.0397
39 | TTCAGCCCTTGGGTTCTAACCTGTTGCCT (site TACAGCCCTAG) | 0.456
40 | TTCAGCCCTTGGGTTCTAACCTGTTGCCT (site TTCAGCCCTAG) | 0.679
41 | TTCAGTCCTTGGGTTCTAACCTGTTGCAT (site TTAAGTCCTAG) | 0
42 | TTCAGTCCTTGGGTTCTAACCTGTTGCAT (site TTCAGTCCTAT) | 0.509
43 | TTCATGTCTTGGGTTCTAACCTGTTGCCT (site TTCACGTCTAG) | 0.0724
